Test results taken from EP3885436A1, “POLYPEPTIDES WITH PEROXIDASE ACTIVITY” (Technische Universität Wien, priority 2020, dated 2021).
Where two headings read alike, the source gives them in different places.

Key:
Format in all cases: biochemical
[1] = target: T1, horseradish peroxidase variant HRP N13D/N57S/N175S/N255D/N268D, produced in E. coli (Armoracia rusticana, UniProt P00433, N205S/N285D/N298D/N43D/N87S)
T1 construct: made in house
Method: (§1) Plant HRP Type VI-A (Cat. No.: P6782) was obtained from Sigma-Aldrich (St. Louis, MO, USA). All HRP variants produced in E. coli consisted of the sequence as set forth in SEQ ID NO: 2 with the indicated mutations unless specified otherwise.
(§2) For measurements with 3,3',5,5'-tetramethylbenzidine (TMB) as substrate, the reaction mixture in each well of the 96-well plate contained a saturating hydrogen peroxide concentration of 1 mM and varying TMB concentrations (20 - 550 µM) in 50 mM phosphate-citrate buffer pH 5 in a final volume of 200 µL. Protein sample (5 µL) was mixed with 175 µl TMB-buffer mixture and the reaction was started with 20 µl hydrogen peroxide solution (10 mM). The increase in absorption was followed at 652 nm for 60s at 30 °C in a Tecan Infinite M200 PRO instrument. The kinetic parameters were calculated using Sigma Plot software (Systat Software INC., San Jose, CA, USA) and an extinction coefficient of ε652 = 39 mM^-1 cm^-1 (see Josephy, et al. "The horseradish peroxidase-catalyzed oxidation of 3, 5, 3', 5'-tetramethylbenzidine. Free radical and charge-transfer complex intermediates." Journal of Biological Chemistry 257.7 (1982): 3669-3675).
(§3) The increase in absorption was followed at 420 nm for 120 s at 30 °C in a Tecan Infinite M200 PRO instrument. The kinetic parameters were calculated using Sigma Plot software (Systat Software INC., San Jose, CA, USA) and an extinction coefficient of ε420 = 36 mM^-1 cm^-1 (see Childs and Bardsley. "The steady-state kinetics of peroxidase with 2, 2'-azino-di-(3-ethyl-benzthiazoline-6-sulphonic acid) as chromogen." Biochemical Journal 145.1 (1975): 93-103).
as §3

[2] = target: T2, horseradish peroxidase variant HRP N13D/N57S/P146Q/N175S/N255D/N268D/N275K (mHRP, SEQ ID NO: 4), produced in E. coli (Armoracia rusticana, UniProt P00433, N205S/N285D/N298D/N305K/N43D/N87S/P176Q)
T2 construct: made in house
Method: as §1, §2, §3, §3

[3] = target: T3, plant-derived HRP (pHRP), Plant HRP Type VI-A, horseradish peroxidase (Armoracia rusticana, UniProt P00433); assay: Enzyme kinetic parameters, 96-well plate assay; details: substrate TMB (20 - 550 µM), 1 mM H2O2, 50 mM phosphate-citrate buffer pH 5, 30 °C; Table 6
T3 construct: The plant-derived enzyme undergoes post-translational modifications, resulting inter alia in a free N-terminus without an appended methionine; purchased Sigma-Aldrich P6782; host or cells: extracted from the plant
T3 sequence (P00433 31-338 limits assumed): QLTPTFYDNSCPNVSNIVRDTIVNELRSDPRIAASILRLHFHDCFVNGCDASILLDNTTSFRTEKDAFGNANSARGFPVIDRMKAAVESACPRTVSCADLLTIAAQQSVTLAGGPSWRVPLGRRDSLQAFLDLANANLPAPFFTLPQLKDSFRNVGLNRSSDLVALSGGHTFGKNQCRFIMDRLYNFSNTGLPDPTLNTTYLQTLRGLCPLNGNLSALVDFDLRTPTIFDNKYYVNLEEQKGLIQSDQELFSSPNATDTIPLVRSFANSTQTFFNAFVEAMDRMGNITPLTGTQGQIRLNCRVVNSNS
Method: as §1, §2
(§4) The increase in absorption was followed at 420 nm for 120 s at 30 °C in a Tecan Infinite M200 PRO instrument. […]

[4] = target: T4, horseradish peroxidase, wild-type HRP (rHRP, variant C1A, SEQ ID NO: 2), produced in E. coli (Armoracia rusticana, UniProt P00433); assay: Enzyme kinetic parameters, 96-well plate assay; details: substrate TMB (20 - 550 µM), 1 mM H2O2, 50 mM phosphate-citrate buffer pH 5, 30 °C; Table 6
T4 construct: made in house
T4 sequence (P00433 with tags, fused parts or gaps): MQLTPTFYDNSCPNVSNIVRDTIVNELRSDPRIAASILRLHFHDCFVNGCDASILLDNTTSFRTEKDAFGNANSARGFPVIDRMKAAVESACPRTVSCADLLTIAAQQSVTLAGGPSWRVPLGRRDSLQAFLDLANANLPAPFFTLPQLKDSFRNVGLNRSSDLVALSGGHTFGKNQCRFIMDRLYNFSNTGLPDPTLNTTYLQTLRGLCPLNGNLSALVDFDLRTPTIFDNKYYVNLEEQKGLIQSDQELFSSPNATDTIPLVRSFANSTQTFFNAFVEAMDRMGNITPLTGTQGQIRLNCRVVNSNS
Method: as §1, §2, §4

[5] = substrate H2O2 (0.001 - 1 mM), 10 mM ABTS, 50 mM phosphate-citrate buffer pH 5, 30 °C, Table 3

T2 sequence (P00433 31-338 N43D/N87S/P176Q/N205S/N285D/N298D/N305K): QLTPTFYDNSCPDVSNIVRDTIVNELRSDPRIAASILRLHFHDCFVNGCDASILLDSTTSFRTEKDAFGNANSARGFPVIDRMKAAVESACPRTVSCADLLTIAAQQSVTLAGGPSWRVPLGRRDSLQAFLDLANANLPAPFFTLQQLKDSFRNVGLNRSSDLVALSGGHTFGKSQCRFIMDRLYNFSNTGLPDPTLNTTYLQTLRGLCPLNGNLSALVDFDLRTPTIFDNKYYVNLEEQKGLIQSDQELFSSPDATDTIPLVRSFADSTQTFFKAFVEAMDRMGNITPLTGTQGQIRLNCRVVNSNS
T1 sequence (P00433 31-338 N43D/N87S/N205S/N285D/N298D): as the sequence (P00433 31-338 N43D/N87S/P176Q/N205S/N285D/N298D/N305K) above, with Q146P, K275N counted along it

SMILES | kcat [1, 5] [s⁻¹] | kcat [2, 5] [s⁻¹] | kcat ([1]; substrate TMB (20 - 550 µM), 1 mM H2O2, 50 mM phosphate-citrate buffer pH 5, 30 °C, Table 2) [s⁻¹] | kcat ([2]; substrate TMB (20 - 550 µM), 1 mM H2O2, 50 mM phosphate-citrate buffer pH 5, 30 °C, Table 2 (Example 3)) [s⁻¹] | kcat ([2]; substrate TMB (20 - 550 µM), 1 mM H2O2, 50 mM phosphate-citrate buffer pH 5, 30 °C, Table 6 (Example 4)) [s⁻¹] | kcat [3] [s⁻¹] | kcat [4] [s⁻¹]
OO [H2O2, hydrogen peroxide] | 1152 | 1344 ± 22 |  |  |  |  | 
Cc1cc(-c2cc(C)c(N)c(C)c2)cc(C)c1N [TMB, 3,3',5,5'-tetramethylbenzidine] |  |  | 3236 ± 193 | 4342 ± 292 | 4293 ± 171 | 4343 | 4169 ± 207
